Results reported in paper PMC11672724, “Antiparasitic Activities of Acyl Hydrazones from Cinnamaldehydes and Structurally Related Fragrances” (Antibiotics, 2024).

Legend:
[1] = tested on: T. gondii RH strain tachyzoites; test: Toxoplasma gondii cells drug testing assay (infection index in Vero cells, 72 h); format: cell-based; details: for IC50: Toxoplasma gondii, Vero, IC50 ± SD, three independent experiments, 72 h; for SI = selectivity index (Vero/T. gondii): ratio IC50 Vero / IC50 T. gondii
Experimental: Cells of the Vero cell line (ATCC® CCL81™, Manassas, VA, USA) were used to cultivate T. gondii RH strain tachyzoites. Vero cells were maintained in complete RPMI 1640 medium (Thermo Fisher Scientific, Waltham, MA, USA). For cell cultivation, 96-well plates were prepared with 5 × 10^3 cells per well in 200 μL of RPMI 1640 medium, then incubated at 37 °C and 5% CO2 for 24 h. The medium was then removed, and cells were washed with phosphate-buffered saline (PBS). Next, RPMI 1640 medium with 2% FBS and parasites at a 5:1 parasite-to-cell ratio were added. After a 5 h incubation at 37 °C and 5% CO2, cells were washed with PBS and subjected to further treatments. […] After incubation at 37 °C and 5% CO2 for 72 h, cells were washed with PBS, fixed in 10% formalin, and stained with 1% toluidine blue. An inverted photomicroscope was used to assess cell infection and to determine the infection index (number of infected cells out of 200 counted cells). The inhibition percentage was calculated as follows:Inhibition (%) = [(I Control − I Experimental)/I Control] × 100 where “I Control” represents the infection index of untreated cells, and “I Experimental” represents the infection index of cells treated with test compounds. The effects of the compounds on parasite growth are expressed as IC50 values derived from three independent experiments.

Vero monkey kidney cells = test: Vero cell cytotoxicity (MTT assay, 72 h); format: cell-based; details: Primates, IC50 ± SD
Experimental: To assess the test compounds’ cytotoxicity, MTT assays were performed. The Vero cells and macrophages were cultivated for 24 h at 37 °C in RPMI 1640 media with 10% FBS and 5% CO2 in 96-well plates (5 × 10^3 cells/well/200 μL). Following a washing step with PBS, the cells were treated with test compounds at different concentrations (50, 25, 12.5, 6.25, 3.13, 1.65, and 0.75 μg /mL) in 10% FBS medium for 72 h. Negative control cells were only given media with 2% FBS and 1% DMSO. The cells were cultured for 4 h after the supernatant was disposed of, and 50 μL of RPMI 1640 media containing 14 μL MTT (5 mg/mL) was added. After removing the supernatant once again, 150 μL of DMSO was added. IC50 values were determined from three independent experiments.

L. major promastigotes = test: Leishmania major promastigote assay (MTT, 72 h); format: cell-based; details: for IC50: Leishmania major, 72 h, IC50 ± SD, MTT; for SI (promastigotes) = selectivity index (macrophages/L. major promastigotes): ratio IC50 macrophages / IC50 promastigotes
Experimental: (§1) Promastigotes of L. major were obtained from a patient (February 2016) and cultured at 26 °C in Schneider’s Drosophila medium (Invitrogen, Carlsbad, CA, USA) supplemented with 10% heat-inactivated fetal bovine serum (FBS, Invitrogen, USA) and antibiotics, with weekly transfers in a tissue culture flask. Promastigotes were cryopreserved in liquid nitrogen at a concentration of 3 × 10^6 parasites/mL. Virulent L. major parasites were maintained by serial passage in female BALB/c mice, achieved by injecting hind footpads with 1 × 10^6 stationary-phase promastigotes. Amastigotes were isolated from the mice after 8 weeks, then converted to promastigotes by cultivation at 26 °C in Schneider’s medium containing 10% FBS and antibiotics. Amastigote-derived promastigotes, which underwent several in vitro passages, were used for the infection studies. BALB/c mice (both male and female) were provided by the Pharmaceutical College, King Saud University, Kingdom of Saudi Arabia, and housed in specific pathogen-free conditions following the ethical guidelines of the Qassim University Research Ethics Committee (permission number: 20-03-20).
L. major promastigotes in the logarithmic phase were cultured in phenol-red-free RPMI 1640 medium (Invitrogen, USA) with 10% FBS in 96-well plates at 10^6 cells/mL (200 μL/well, counted with a hemocytometer). Test compounds were added at final concentrations of 50, 25, 12.5, 6.25, 3.13, 1.65, and 0.75 μg/mL. […] After incubation at 26 °C for 72 h, viable promastigotes were counted using an MTT colorimetric assay. The formed formazan was dissolved in a detergent and the absorbance was measured at 570 nm using an ELISA reader. IC50 values were derived from three independent experiments.

L. major amastigotes = test: Leishmania major amastigotes in peritoneal macrophages (percentage of infected macrophages, 72 h); format: cell-based; details: Macrophage, IC50 ± SD
Experimental: as §1
Activity against amastigotes in macrophages was evaluated using peritoneal macrophages, which were harvested from 6–8-week-old BALB/c mice of different sex, and plated at 5 × 10^4 cells/well in 96-well plates containing phenol-red-free RPMI 1640 medium with 10% FBS. After 4 h at 37 °C and 5% CO2 to promote adhesion, cells were washed with PBS, and 200 μL of an L. major promastigote solution (10 promastigotes per macrophage) was added. Plates were incubated for 24 h at 37 °C in a 5% CO2 environment to allow infection and amastigote differentiation. Infected cells were then washed with PBS and overlaid with RPMI 1640 medium containing the test compounds at the same concentrations as applied for the experiments with promastigotes, followed by incubation at 37 °C and 5% CO2 for 72 h. […] IC50 values were calculated from three independent experiments.

macrophages = test: Macrophage cytotoxicity (MTT assay, 72 h); format: cell-based, BALB/c mice; details: Mus musculus, IC50 ± SD
Experimental: Plates were incubated for 24 h at 37 °C in a 5% CO2 environment to allow infection and amastigote differentiation. Infected cells were then washed with PBS and overlaid with RPMI 1640 medium containing the test compounds at the same concentrations as applied for the experiments with promastigotes, followed by incubation at 37 °C and 5% CO2 for 72 h. […] The percentage of infected macrophages was determined microscopically after fixation, Giemsa staining, and medium removal. IC50 values were calculated from three independent experiments. To assess the test compounds’ cytotoxicity, MTT assays were performed. […] Negative control cells were only given media with 2% FBS and 1% DMSO. The cells were cultured for 4 h after the supernatant was disposed of, and 50 μL of RPMI 1640 media containing 14 μL MTT (5 mg/mL) was added. After removing the supernatant once again, 150 μL of DMSO was added. IC50 values were determined from three independent experiments.

CN(C)c1ccc(/C=C/C=N/NC(=O)c2cccc(O)c2)cc1 [Compound 2f, (E)-N′-(4-Dimethylaminocinnamylidene)-3-hydroxybenzoylhydrazide]
activity against T. gondii (in words) [1]: inactive
IC50 [1]: > 42.7 µM
IC50 (Vero monkey kidney cells): 40.1 ± 6.8 µM
IC50 (L. major promastigotes): > 42.7 µM
IC50 (L. major amastigotes): > 42.7 µM
IC50 (macrophages): > 42.7 µM
melting point: 257 to 258 °C

CC(C)Cc1ccc(CC(C)/C=N/NC(=O)c2ccccc2F)cc1 (stereo not drawn) [Compound 3d, N′-2-Methyl-3-[4-(2-methylpropyl)phenyl]propanylidene-2-fluorobenzoylhydrazide]
IC50 [1]: 46.3 ± 5.5 µM
SI = selectivity index (Vero/T. gondii) [1]: 1.2
IC50 (Vero monkey kidney cells): 56.1 ± 10.4 µM
IC50 (L. major promastigotes): > 58.8 µM
IC50 (L. major amastigotes): > 58.8 µM
IC50 (macrophages): > 58.8 µM
melting point: 82 to 83 °C

CC(C)c1cccc(C(C)C/C=N/NC(=O)c2cccc(O)c2)c1 (stereo not drawn) [Compound 4c, N′-3-(3-Isopropylphenyl)butanylidene-3-hydroxybenzoylhydrazide]
IC50 [1]: > 61.7 µM
IC50 (Vero monkey kidney cells): 29.1 ± 2.6 µM
IC50 (L. major promastigotes): > 61.7 µM
IC50 (L. major amastigotes): > 61.7 µM
IC50 (macrophages): > 61.7 µM
melting point: 196 to 197 °C

CC(C)Cc1ccc(CC(C)/C=N/NC(=O)c2ccncc2)cc1 (stereo not drawn) [Compound 3g, N′-2-Methyl-3-[4-(2-methylpropyl)phenyl]propanylidene-isonicotinoylhydrazide]
IC50 [1]: 60.6 ± 10.1 µM
IC50 (Vero monkey kidney cells): > 61.8 µM
IC50 (L. major promastigotes): > 61.8 µM
IC50 (L. major amastigotes): > 61.8 µM
IC50 (macrophages): > 61.8 µM
melting point: 122 to 123 °C

CC(C)Cc1ccc(CC(C)/C=N/NC(=O)c2ccccc2O)cc1 (stereo not drawn) [Compound 3b, N′-2-Methyl-3-[4-(2-methylpropyl)phenyl]propanylidene-2-hydroxybenzoylhydrazide]
IC50 [1]: 13.7 ± 2.2 µM
SI = selectivity index (Vero/T. gondii) [1]: 1.8
IC50 (Vero monkey kidney cells): 24.6 ± 3.3 µM
IC50 (L. major promastigotes): > 59.1 µM
IC50 (L. major amastigotes): 58.6 ± 8.6 µM
IC50 (macrophages): > 59.1 µM
melting point: 160 to 161 °C

CN(C)c1ccc(/C=C/C=N/NC(=O)c2cccc(Cl)c2)cc1 [Compound 2k, (E)-N′-(4-Dimethylaminocinnamylidene)-3-chlorobenzoylhydrazide]
IC50 [1]: > 40.3 µM
IC50 (Vero monkey kidney cells): > 40.3 µM
IC50 (L. major promastigotes): > 40.3 µM
IC50 (L. major amastigotes): > 40.3 µM
IC50 (macrophages): > 40.3 µM
melting point: 210 °C

O=C(N/N=C/C=C/c1ccccc1)c1cccc(O)c1 [Compound 2e, (E)-N′-(Cinnamylidene)-3-hydroxybenzoylhydrazide]
activity against T. gondii (in words) [1]: inactive
IC50 [1]: > 49.6 µM
IC50 (Vero monkey kidney cells): 46.2 ± 6.4 µM
IC50 (L. major promastigotes): > 49.6 µM
IC50 (L. major amastigotes): > 49.6 µM
IC50 (macrophages): > 49.6 µM
melting point: 249 to 250 °C

CN(C)c1ccc(/C=C/C=N/NC(=O)c2ccccc2F)cc1 [Compound 2h, (E)-N′-(4-Dimethylaminocinnamylidene)-2-fluorobenzoylhydrazide]
IC50 [1]: 55.2 ± 9.7 µM
SI = selectivity index (Vero/T. gondii) [1]: 0.98
IC50 (Vero monkey kidney cells): 54.1 ± 9.1 µM
IC50 (L. major promastigotes): > 64.2 µM
IC50 (L. major amastigotes): > 64.2 µM
IC50 (macrophages): > 64.2 µM
melting point: 205 to 206 °C

CN(C)c1ccc(/C=C/C=N/NC(=O)c2cccc(F)c2)cc1 [Compound 2j, (E)-N′-(4-Dimethylaminocinnamylidene)-3-fluorobenzoylhydrazide]
IC50 [1]: > 42.4 µM
IC50 (Vero monkey kidney cells): > 42.4 µM
IC50 (L. major promastigotes): > 42.4 µM
IC50 (L. major amastigotes): > 42.4 µM
IC50 (macrophages): > 42.4 µM
melting point: 208 °C

CC(C)Cc1ccc(CC(C)/C=N/NC(=O)c2cccc(O)c2)cc1 (stereo not drawn) [Compound 3c, N′-2-Methyl-3-[4-(2-methylpropyl)phenyl]propanylidene-3-hydroxybenzoylhydrazide]
IC50 [1]: 55.3 ± 9.4 µM
IC50 (Vero monkey kidney cells): > 59.1 µM
IC50 (L. major promastigotes): > 59.1 µM
IC50 (L. major amastigotes): > 59.1 µM
IC50 (macrophages): > 59.1 µM
melting point: 182 to 183 °C

O=C(N/N=C/C=C/c1ccccc1)c1ccncc1 [Compound 2l]
IC50 [1]: 52.1 ± 8.3 µM
SI = selectivity index (Vero/T. gondii) [1]: 0.99
IC50 (Vero monkey kidney cells): 51.3 ± 7.8 µM
IC50 (L. major promastigotes): 51.3 ± 9.3 µM
SI (promastigotes) = selectivity index (macrophages/L. major promastigotes) (L. major promastigotes): >1.0
IC50 (L. major amastigotes): > 52.5 µM
IC50 (macrophages): > 52.5 µM

O=C(N/N=C/C=C/c1ccccc1)c1ccccc1F [Compound 2g]
IC50 [1]: 69.4 ± 10 µM
IC50 (Vero monkey kidney cells): > 74.6 µM
IC50 (L. major promastigotes): > 74.6 µM
IC50 (L. major amastigotes): > 74.6 µM
IC50 (macrophages): > 74.6 µM

O=C(N/N=C/C=C/c1ccccc1)c1ccccc1O [Compound 2c]
IC50 [1]: 1.1 ± 0.2 µM
SI = selectivity index (Vero/T. gondii) [1]: 17.3
IC50 (Vero monkey kidney cells): 19.5 ± 2.6 µM
IC50 (L. major promastigotes): 47.7 ± 6.5 µM
SI (promastigotes) = selectivity index (macrophages/L. major promastigotes) (L. major promastigotes): 0.91
IC50 (L. major amastigotes): > 49.6 µM
IC50 (macrophages): 43.6 ± 8.6 µM

CN(C)c1ccc(/C=C/C=N/NC(=O)c2cc3ccccc3cc2O)cc1 [Compound 2b]
IC50 [1]: 23.4 ± 3.9 µM
SI = selectivity index (Vero/T. gondii) [1]: 1.0
IC50 (Vero monkey kidney cells): 24.2 ± 2.7 µM
IC50 (L. major promastigotes): > 36.7 µM
IC50 (L. major amastigotes): > 36.7 µM
IC50 (macrophages): > 36.7 µM
